Measured values reported in patent US20250333397A1 (REMIX THERAPEUTICS INC., priority 2021, published 2025).
Read-outs that look alike come from different tables or passages of the source.

Tests used:
Format in all cases: cell-based, human
[1] = tested on: MYB mRNA; experiment: RT-qPCR splicing assay, MYB canonical (CJ) and alternative (AJ) junction mRNA; settings: for AC50: read-out: MYB AJ (AC50, increase in AJ mRNA)
Procedure, shortened: (§1)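 CJ and AJ junction levels were quantified by RT-qPCR on lysates, with housekeeper ΔCt normalized to DMSO (ΔΔCt) and expressed as RQ = 2^(-ΔΔCt). Before lysis, K562 or A673 cells had 24 h compound exposure at 37 °C. Dosing was 11 points, 3-fold, from 10 uM final, with DMSO at most 0.25%.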

[2] = tested on: Target C mRNA; experiment: RT-qPCR splicing assay panel, Target C canonical junction (CJ) mRNA; settings: Homo sapiens, canonical junction (CJ) mRNA, RT-qPCR panel, Table 4A; read-out: Target C, decrease in CJ mRNA levels, IC50
Procedure, shortened: as §1

[3] = tested on: HTT mRNA; experiment: RT-qPCR splicing assay, HTT canonical (CJ) and alternative (AJ) junction mRNA; settings: Homo sapiens; for AC50: read-out: HTT AJ (AC50, increase in AJ mRNA)
Procedure, shortened: as §1

[4] = tested on: SMN2 mRNA; experiment: RT-qPCR splicing assay panel, SMN2 canonical junction (CJ) mRNA; settings: Homo sapiens, canonical junction (CJ) mRNA, RT-qPCR panel, Table 4A; read-out: SMN2, decrease in CJ mRNA levels, IC50
Procedure, shortened: as §1

[5] = Homo sapiens, 24 h, Table 3A, A673 or K562 cells, 24 h treatment
[6] = Homo sapiens, 24 h, Table 3A, A673 or K562 cells, 24 h treatment, read-out: MYB CJ (IC50, decrease in CJ mRNA)
[7] = Homo sapiens, canonical junction (CJ) mRNA, RT-qPCR panel, Table 4A, read-out: MYB, decrease in CJ mRNA levels, IC50
[8] = 24 h, Table 3A, A673 or K562 cells, 24 h treatment
[9] = 24 h, Table 3A, A673 or K562 cells, 24 h treatment, read-out: HTT CJ (IC50, decrease in CJ mRNA)
[10] = canonical junction (CJ) mRNA, RT-qPCR panel, Table 4A, read-out: HTT, decrease in CJ mRNA levels, IC50

IC50 [1, 6] [nM]	IC50 [1, 7] [nM]	IC50 [2] [nM]	IC50 [3, 9] [nM]	IC50 [3, 10] [nM]	IC50 [4] [nM]	Compound	AC50 [1, 5] [nM]	AC50 [3, 8] [nM]	AC50 ([1]; Table 3A, A673 or K562 cells, 24 h treatment) [nM]
1000 to 10000	1000 to 10000	1000 to 10000	1000 to 10000	1000 to 10000	100 to 1000	Oc1cc(-c2ccnnc2)ccc1-c1ccc(N2CCC(NC3CCC3)C2)nn1 (stereo not drawn) [Compound 388]	1000 to 10000	1000 to 10000	–
> 10000	> 10000	> 10000	> 10000	> 10000	1000 to 10000	Oc1cc(-c2cnc(C(F)(F)F)s2)c(F)cc1-c1ccc(N2CCC(NC3CCC3)C2)nn1 (stereo not drawn) [Compound 390]	> 10000	> 10000	–
< 100	< 100	< 100	< 100	< 100	< 100	Cc1ncc(-c2cc(O)c(-c3ccc(N4CC[C@@H](NCC5CC5)C4)nn3)cc2F)s1 [Compound 392]	< 100	< 100	–
100 to 1000	100 to 1000	100 to 1000	< 100	< 100	< 100	Cc1ncc(-c2cc(O)c(-c3ccc(N4CC[C@@H](NCC5CCC5)C4)nn3)cc2F)s1 [Compound 395]	100 to 1000	100 to 1000	–
100 to 1000	100 to 1000	100 to 1000	100 to 1000	100 to 1000	100 to 1000	COc1cc(-c2cc(O)c(-c3ccc(N4CC[C@H](NC(C)(C)C)C4)nn3)cc2F)ncn1 [Compound 397]	1000 to 10000	100 to 1000	–
1000 to 10000	1000 to 10000	100 to 1000	100 to 1000	100 to 1000	100 to 1000	Cc1nnc(-c2cc(O)c(-c3ccc(N4CC[C@H](NCC5CC5)C4)nn3)cc2F)s1 [Compound 401]	1000 to 10000	100 to 1000	–
1000 to 10000	1000 to 10000	1000 to 10000	100 to 1000	100 to 1000	100 to 1000	Cc1nnc(-c2cc(O)c(-c3ccc(N4CC[C@@H](NCC5CC5)C4)nn3)cc2F)s1 [Compound 402]	1000 to 10000	100 to 1000	–
100 to 1000	100 to 1000	100 to 1000	< 100	< 100	< 100	COc1cc(-c2ccc(-c3ccc(N4CCC(N[C@H]5C[C@@H](OC)C5)C4)nn3)c(O)c2)cnn1 (stereo partly drawn) [Compound 404, 5-(6-methoxypyridazin-4-yl)-2-[6-(3-{[(1s,3s)-3-methoxycyclobutyl]amino}pyrrolidin-1-yl)pyridazin-3-yl]phenol]	1000 to 10000	100 to 1000	–
< 100	< 100	< 100	< 100	< 100	< 100	COc1nc(-c2ccc(N3CC[C@@H](NC(C)(C)C)C3)nn2)ccc1-c1cnc(C)s1 [Compound 405]	< 100	< 100	–
100 to 1000	100 to 1000	100 to 1000	100 to 1000	100 to 1000	100 to 1000	CN([C@@H]1CCN(c2ccc(-c3ccc(-c4cn[nH]c4)cc3O)nn2)C1)C(C)(C)C [Compound 406, 2-{6-[(3R)-3-[tert-butyl(methyl)amino]pyrrolidin-1-yl]pyridazin-3-yl}-5-(1H-pyrazol-4-yl)phenol]	–	100 to 1000	1000 to 10000
1000 to 10000	1000 to 10000	< 100	< 100	< 100	< 100	Cc1ncc(-c2cc(O)c(-c3ccc(N4CC[C@H](NCC5CCC5)C4)nn3)cc2F)s1 [Compound 411]	100 to 1000	< 100	–

Second part, the molecule before the results:

Compound	IC50 [1, 6] [nM]	IC50 [1, 7] [nM]	IC50 [2] [nM]	IC50 [3, 9] [nM]	IC50 [3, 10] [nM]	IC50 [4] [nM]	AC50 [1, 5] [nM]	AC50 [3, 8] [nM]	AC50 ([1]; Table 3A, A673 or K562 cells, 24 h treatment) [nM]
Cc1ncc(-c2cc(O)c(-c3ccc(OC4CC(C)(C)NC(C)(C)C4)nn3)cc2F)s1 [Compound 385]	100 to 1000	100 to 1000	100 to 1000	< 100	< 100	< 100	100 to 1000	< 100	–
Cc1nc(C)c(-c2cc(O)c(-c3ccc(N4CC[C@H](NC5CCC5)C4)nn3)cc2F)s1 [Compound 386]	1000 to 10000	1000 to 10000	1000 to 10000	100 to 1000	100 to 1000	100 to 1000	1000 to 10000	1000 to 10000	–
Cc1nc(C)c(-c2cc(O)c(-c3ccc(N4CC[C@@H](NC5CCC5)C4)nn3)cc2F)s1 [Compound 387]	1000 to 10000	1000 to 10000	1000 to 10000	100 to 1000	100 to 1000	100 to 1000	1000 to 10000	1000 to 10000	–
Oc1cc(-c2cnc(C(F)F)s2)c(F)cc1-c1ccc(N2CCC(NC3CCC3)C2)nn1 (stereo not drawn) [Compound 389]	1000 to 10000	1000 to 10000	1000 to 10000	100 to 1000	100 to 1000	100 to 1000	1000 to 10000	1000 to 10000	–
Cc1ncc(-c2cc(O)c(-c3ccc(N4CCC(NC5CCCC5)C4)nn3)cc2F)s1 (stereo not drawn) [Compound 391]	< 100	< 100	< 100	< 100	< 100	< 100	100 to 1000	< 100	–
Cc1ncc(-c2cc(O)c(-c3ccc(N4CC[C@H](NCC5CC5)C4)nn3)cc2F)s1 [Compound 393]	< 100	< 100	< 100	< 100	< 100	< 100	< 100	< 100	–
COc1cc(-c2cc(O)c(-c3ccc(N4CC[C@@H](NC(C)(C)C)C4)nn3)cc2F)ncn1 [Compound 396]	1000 to 10000	1000 to 10000	1000 to 10000	100 to 1000	100 to 1000	< 100	1000 to 10000	1000 to 10000	–
Cc1nc(-c2cc(O)c(-c3ccc(N4CCC(NC5CCC5)C4)nn3)cc2F)cs1 (stereo not drawn) [Compound 398]	1000 to 10000	1000 to 10000	1000 to 10000	1000 to 10000	1000 to 10000	1000 to 10000	1000 to 10000	1000 to 10000	–
COc1cc(-c2ccc(-c3ccc(N4CCC(N[C@H]5C[C@@H](O)C5)C4)nn3)c(O)c2)cnn1 (stereo partly drawn) [Compound 403, 5-(6-methoxypyridazin-4-yl)-2-[6-(3-{[(1s,3s)-3-hydroxycyclobutyl]amino}pyrrolidin-1-yl)pyridazin-3-yl]phenol]	100 to 1000	100 to 1000	100 to 1000	< 100	< 100	< 100	1000 to 10000	100 to 1000	–
COc1cc(-c2ccc(-c3ccc(N4CC[C@H](N[C@H]5C[C@@H](F)C5)C4)nn3)c(O)c2)ncn1 [Compound 407, 5-(6-methoxypyrimidin-4-yl)-2-{6-[(3R)-3-{[(1s,3s)-3-fluorocyclobutyl]amino}pyrrolidin-1-yl]pyridazin-3-yl}phenol]	100 to 1000	100 to 1000	100 to 1000	100 to 1000	100 to 1000	100 to 1000	100 to 1000	100 to 1000	–
COc1cc(-c2ccc(-c3ccc(N4CC[C@@H](N[C@H]5C[C@@H](F)C5)C4)nn3)c(O)c2)ncn1 [Compound 408, 5-(6-methoxypyrimidin-4-yl)-2-{6-[(3S)-3-{[(1s,3s)-3-fluorocyclobutyl]amino}pyrrolidin-1-yl]pyridazin-3-yl}phenol]	100 to 1000	100 to 1000	100 to 1000	< 100	< 100	< 100	100 to 1000	100 to 1000	–
CN(C)c1cc(-c2ccc(-c3ccc(N4CCC(NC5CCC5)C4)nn3)c(O)c2)cnn1 (stereo not drawn) [Compound 409]	> 10000	> 10000	> 10000	> 10000	> 10000	> 10000	> 10000	> 10000	–
Cc1ncc(-c2cc(O)c(-c3ccc(N4CCC(NC5CCCCC5)C4)nn3)cc2F)s1 (stereo not drawn) [Compound 410]	1000 to 10000	1000 to 10000	100 to 1000	< 100	< 100	< 100	100 to 1000	< 100	–
